The test system of the series is V79 cell line. The series is described as follows: MTT cytotoxicity test. The following applies: V79 cells, 24 h, tested range 100–1000 µM; viability below 70% indicates cytotoxicity. The class given is cell-based, Cricetulus griseus. The procedure: Cell viability below 70% indicates cytotoxicity.
V79 cells (Cricetulus griseus lung fibroblast cell line) (European Collection of Cell Culture) were grown in MEM (PAN-Biotech, Aidenbach, Germany) containing 2 mM glutamine (Sigma Aldrich, Darmstadt, Germany)), 1% non-essential amino acids (Biological Industries, Cromwell, U.S), 10% FBS (Biowest, Nuaillé, France), and 100 units/mL penicillin and […] (Biological Industries, Cromwell, U.S). Cells were plated and grown in an incubator at 37 °C with 5% CO2 to 80% confluence before the initiation of the assay.
V79 cells were seeded at a density of 1 × 10^4 cells per well and were incubated for 24 h. After 24 h, the medium was removed from the wells, and cells were exposed to the compound solutions over a range of concentrations or nothing but culture medium (blank control). Cells were further incubated for an additional 24 h. At the end, the medium was removed and MTT solution (0.75 mg/mL) was added. Next, plates were incubated in the dark for 2 h at 37 °C. Then, the MTT solution was removed and DMSO was added to each well. Plates were incubated for 10 min at room temperature. The absorbance at 570 nm was measured on a microplate reader. Cell viability was expressed as a percentage of the control values (blank).
(Tetrazolium dyes change colour on reduction, which living cells bring about.)

As to `CCOP(=O)(Cc1ccc(CN)cc1)OCC` [8c], the “Cytotoxicity (in words)” value is on record as “Non-toxic”.
Consider `CCOP(=O)(Cc1ccccc1CN)OCC` [8a], for which the “Cytotoxicity (in words)” value was “Non-toxic”.
Take `CCOP(=O)(Cc1cccc(CN)c1)OCC` [8b]: the “Cytotoxicity (in words)” value was “Non-toxic”.
